Consider 28 molecules from US6894075B2, “4′-demethyl-4′-O-substituted-1-deoxypodophyllotoxin derivative and geometric isomer thereof, process for the preparation thereof and anti-cancer composition comprising the same” (priority 2000, dated 2005).

Molecules are shown by their SMILES. Read-outs that look alike come from different tables or passages of the source. Where only a bound is given, the exact number is not on record here.

In one data set the test system is SK-MEL-2 cell. Put plainly: Cytotoxicity test (SRB method) for SK-MEL-2 cells. Format: cell-based, human. As to conditions: SK-MEL-2, SRB, 48 hours incubation. The source says:
(§1) Human lung carcinomas A549 and […] were used for determining cytotoxicity of the compounds of the present invention according to the Sulfrhodamine-B (SRB) method which was developed by NCI in 1989 in order to determine in vitro anticancer activity of drugs.
(§2) Cells to be used in the experiment were separated from a surface using 0.5% Trypsin-EDTA solution and suspended in a density of 5×10^4 cell/ml therein. The cell suspension was introduced into a 96-well plate in an amount of 180/well and incubated for 24 hours in a 5% CO2 incubator of 37° C. Samples were dissolved in dimethylsulfoxide and then diluted by water distilled in advance for three times just before the experiment. Forty-one (41) samples were prepared into 4 types of final concentrations, i.e., 0.1, 0.03, 0.01 and 0.003 mg per ml of the medium. The diluted sample solutions were added to the 96-well plate in the amount of 20 μl/well and incubated for 48 hours in a CO2 incubator of 37° C. At the time of adding the samples, Tz (Time zero) plate was taken. The medium was removed from the Tz plate and each of the plates after incubation were completed. Ten (10)% […] (TCA) was added in the amount of […], and allowed to stand for 1 hour at 4° C. to fix the cells on the bottom surface of the plate. After the cells were fixed, the plate was washed five to six times with water to completely remove the remaining TCA solution and then dried at room temperature to completely remove the moisture. To the fully dried plate was introduced a dye solution in the amount of […] in which 0.4% SRB was dissolved in 1% acetic acid solution. […] After the dyeing process, the plate was dried again at room temperature. 100 ml of 10 mM Tris solution was added thereto in order to dissolve the dye, and then O.D. (optical density) was determined by microplate reader at 520 nm.
(§3) ED50 values for cancer cells were calculated as follows. The amount of SRB protein was analyzed at the time when incubation started by the addition of the sample. This amount was named time zero (Tz). The O.D. value obtained from a group which was not treated by the sample was named Control group (C) and the O.D. value obtained from a group which was treated by the sample was named Test group (T).
(§4) The degree of cytotoxicity of the compounds was calculated from Tz, C and T values according to the following equation.
(§5) That is, in the case of Tz≧T, the degree was calculated by
(§6) (T−Tz)/(C−Tz)×100(%), and
(§7) • in the case of Tz<T, the degree was calculated by […].
(§8) From the values thus obtained, ED50 value which is defined as the concentration at which growth of the cancer cell is inhibited by 50% was calculated using the regression function of Excel program.
In general terms: Sulforhodamine B stains cellular protein and so reports cell mass.

The next data set deals with A549 cell. Nature of the data set: Cytotoxicity test (SRB method) for A549 cells. Type of data set: cell-based, human. Particulars: for ED50(mg/mL) for A549: Table 2; for cytotoxicity compared with DPT: A549, in words.
Text: as §1, §2, §3, §4, §5, §6, §7, §8

Where [1] appears, read: A549 human lung cancer cell, SRB, 48 hours incubation, read-out: ED50(nM) for A549.
[2] abbreviates: A549, SRB, Table 2, unit printed in the cell, read-out: ED50 for A549, cells marked.

For `CCCCCCC(=O)Oc1c(OC)cc(C2c3cc4c(cc3CC3COC(=O)C32)OCO4)cc1OC` (stereo not shown) [Compound 1c-7, 4′-demethyl-4′-O-heptanoyl-1-deoxypodophyllotoxin], the “ED50(mg/mL) for SK-MEL-2” value in the data set with SK-MEL-2 cell came to 0.078 mg/mL. In the data set on A549 cell (A549, SRB, 48 hours incubation), the “ED50(mg/mL) for A549” value turned out to be 0.013 mg/mL. Taken in the same sequence, the figures for `CCCCCCCC/C=C\CCCCCCCCCCCC(=O)Oc1c(OC)cc(C2c3cc4c(cc3CC3COC(=O)C32)OCO4)cc1OC` (stereo not drawn) [Compound 1c-30, 4′-demethyl-4′-O-(cis-13′-docosenoyl)-1-deoxypodophyllotoxin] were 0.561 mg/mL and 2.710 mg/mL. For the molecule `COc1cc(C2c3cc4c(cc3CC3COC(=O)C32)OCO4)cc(OC)c1OC(=O)Nc1ccc(F)cc1` (stereo not shown) [Compound 1b-9, 4′-demethyl-4′-O-(4-fluorophenylcarbamoyl)-1-deoxypodophyllo-toxin], the EC50 with A549 cell (setting [1]) worked out at 86.3 nM. For `CCCCC/C=C/C/C=C/CCCCCCCC(=O)Oc1c(OC)cc(C2c3cc4c(cc3CC3COC(=O)C32)OCO4)cc1OC` (stereo not drawn) [Compound 1c-21, 4′-demethyl-4′-O-(trans-9′,12′-octadecadienoyl)-1-deoxypodophyllo-toxin], the “ED50(mg/mL) for SK-MEL-2” value in the data set on SK-MEL-2 cell is 0.110 mg/mL. Moreover, the “ED50(mg/mL) for A549” value in the data set on A549 cell (A549, SRB, 48 hours incubation) was found to be 0.259 mg/mL. Regarding `CCCCC/C=C\C/C=C\C/C=C\C/C=C\CCCC(=O)Oc1c(OC)cc(C2c3cc4c(cc3CC3COC(=O)C32)OCO4)cc1OC` (stereo not drawn) [Compound 1c-28, 4′-demethyl-4′-O-(cis-5′,8′,11′,14′-eicosatetraenoyl)-1-deoxypodophyllotoxin], the “ED50(mg/mL) for SK-MEL-2” value in the data set with SK-MEL-2 cell is 0.184 mg/mL. The “ED50(mg/mL) for A549” value in the data set with A549 cell (A549, SRB, 48 hours incubation) was found to be 0.910 mg/mL. Turning to `COc1cc(C2c3cc4c(cc3CC3COC(=O)C32)OCO4)cc(OC)c1OC(=O)Nc1ccc(C)cc1` (stereo not shown) [Compound 1b-11, 4′-demethyl-4′-O-(4-methylphenylcarbamoyl)-1-deoxypodophyllotoxin], the EC50 with A549 cell (setting [1]) worked out at 99.3 nM. `CCCCCC/C=C\CCCCCCCCCC(=O)Oc1c(OC)cc(C2c3cc4c(cc3CC3COC(=O)C32)OCO4)cc1OC` (stereo not drawn) [Compound 1c-18, 4′-demethyl-4′-O-(cis-11′-octadecenoyl)-1-deoxypodophyllo-toxin]: the “ED50(mg/mL) for SK-MEL-2” value in the data set on SK-MEL-2 cell worked out at 0.057 mg/mL. The “ED50(mg/mL) for A549” value in the data set with A549 cell (A549, SRB, 48 hours incubation) is given as 0.335 mg/mL. The matching figures for `CCCCCCCC/C=C/CCCCCCCCCC(=O)Oc1c(OC)cc(C2c3cc4c(cc3CC3COC(=O)C32)OCO4)cc1OC` (stereo not drawn) [Compound 1c-26, 4′-demethyl-4′-O-(trans-11′-eicosenoyl)-1-deoxypodophyllotoxin]: 1.130 mg/mL and 1.660 mg/mL. As to `CCCCCCCCCCCCCCCCCCCCCC(=O)Oc1c(OC)cc(C2c3cc4c(cc3CC3COC(=O)C32)OCO4)cc1OC` (stereo not shown) [Compound 1c-29, 4′-demethyl-4′-O-docosanoyl-1-deoxypodophyllotoxin], the “ED50(mg/mL) for SK-MEL-2” value in the data set with SK-MEL-2 cell was over 5 mg/mL. Also, the “ED50(mg/mL) for A549” value in the data set on A549 cell (A549, SRB, 48 hours incubation) was over 5 mg/mL. Regarding `COc1cc(C2c3cc4c(cc3CC3COC(=O)C32)OCO4)cc(OC)c1OC(=O)C(N)C(C)C` (stereo not shown) [Compound 1a-3, 4′-demethyl-4′-O-valinoyl-1-deoxypodophyllotoxin], the EC50 in the data set with A549 cell (setting [1]) was 88.2 nM. Same read-out and setting: the figure for `COc1cc(C2c3cc4c(cc3CC3COC(=O)C32)OCO4)cc(OC)c1OC(=O)Nc1ccccc1` (stereo not shown) [Compound 1b-8, 4′-demethyl-4′-O-phenylcarbamoyl-1-deoxypodophyllotoxin] is 177 nM.

As for `COc1cc(C2c3cc4c(cc3CC3COC(=O)C32)OCO4)cc(OC)c1OC(=O)NC(=O)c1ccccc1` (stereo not shown) [Compound 1b-15, 4′-demethyl-4′-O-benzoylcarbamoyl-1-deoxypodophyllotoxin], the EC50 in the data set on A549 cell (setting [1]) was 77 nM. Still for that read-out and setting: the figure for `COc1cc(C2c3cc4c(cc3CC3COC(=O)C32)OCO4)cc(OC)c1OC(=O)NC(=O)CCl` (stereo not shown) [Compound 1b-6, 4′-demethyl-4′-O-chloroacetylcarbamoyl-1-deoxypodophyllotoxin] is 80.3 nM; for `COc1ccc(NC(=O)Oc2c(OC)cc(C3c4cc5c(cc4CC4COC(=O)C43)OCO5)cc2OC)cc1` (stereo not shown) [Compound 1b-10, 4′-demethyl-4′-O-(4-methoxyphenylcarbamoyl)-1-deoxypodophyllotoxin] it is 95.6 nM.

Consider `COc1cc(C2c3cc4c(cc3CC3COC(=O)C32)OCO4)cc(OC)c1OC(=O)NS(=O)(=O)c1ccccc1` (stereo not shown) [Compound 1b-16, 4′-demethyl-4′-O-benzenesulfonylcarbamoyl-1-deoxypodophyllo-toxin], for which the “cytotoxicity compared with DPT” value in the data set on A549 cell is recorded as “stronger cytotoxicity than DPT”. Also, the EC50 in the data set on A549 cell (setting [1]) turned out to be 50.6 nM. Take `COc1cc(C2c3cc4c(cc3CC3COC(=O)C32)OCO4)cc(OC)c1OC(=O)Nc1ccc(SC)cc1` (stereo not shown) [Compound 1b-12, 4′-demethyl-4′-O-(4-methylthiophenylcarbamoyl)-1-deoxypodophyllotoxin]: in the data set with A549 cell (setting [1]), the EC50 is 106 nM. Consider `COc1cc(C2c3cc4c(cc3CC3COC(=O)C32)OCO4)cc(OC)c1OC(=O)[C@H](C)N` (stereo partly shown) [Compound 1a-1, 4′-demethyl-4′-O-alanoyl-1-deoxypodophyllotoxin], for which the “cytotoxicity compared with DPT” value in the data set with A549 cell is “stronger cytotoxicity than DPT”. Besides, the EC50 with A549 cell (setting [1]) stood at 21.9 nM. As to `C=CCNC(=O)Oc1c(OC)cc(C2c3cc4c(cc3CC3COC(=O)C32)OCO4)cc1OC` (stereo not shown) [Compound 1b-7, 4′-demethyl-4′-O-allylcarbamoyl-1-deoxypodophyllotoxin], the EC50 with A549 cell (setting [1]) worked out at 90.5 nM. Consider `COc1cc(C2c3cc4c(cc3CC3COC(=O)C32)OCO4)cc(OC)c1OC(=O)Cc1ccc(N)cc1` (stereo not shown) [Compound 1a-16, 4′-demethyl-4′-O-(4-aminophenylacetyl)-1-deoxypodophyllotoxin], for which, in the data set with A549 cell (setting [1]), the EC50 worked out at 114 nM. The same measure, in the same setting: for `COc1cc(C2c3cc4c(cc3CC3COC(=O)C32)OCO4)cc(OC)c1OC(=O)C(N)Cc1ccccc1` (stereo not shown) [Compound 1a-7, 4′-demethyl-4′-O-phenylalanoyl-1-deoxypodophyllotoxin] the value was 86.6 nM; for `CCNC(=O)Oc1c(OC)cc(C2c3cc4c(cc3CC3COC(=O)C32)OCO4)cc1OC` (stereo not shown) [Compound 1b-1, 4′-demethyl-4′-O-ethylcarbamoyl-1-deoxypodophyllotoxin], 132 nM; for `COc1cc(C2c3cc4c(cc3CC3COC(=O)C32)OCO4)cc(OC)c1OC(=O)CN` (stereo not shown) [Compound 1a-4, 4′-demethyl-4′-O-glycinoyl-1-deoxypodophyllotoxin], 102 nM. `COc1cc(C2c3cc4c(cc3CC3COC(=O)C32)OCO4)cc(OC)c1OC(=O)C(N)CO` (stereo not shown) [Compound 1a-5, 4′-demethyl-4′-O-serinoyl-1-deoxypodophyllotoxin]: the “cytotoxicity compared with DPT” value in the data set on A549 cell is “stronger cytotoxicity than DPT”. The EC50 in the data set on A549 cell (setting [1]) was determined as 55 nM. As for `COc1cc(C2c3cc4c(cc3CC3COC(=O)C32)OCO4)cc(OC)c1OC(=O)NCc1ccccc1` (stereo not shown) [Compound 1b-14, 4′-demethyl-4′-O-benzylcarbamoyl-1-deoxypodophyllotoxin], the “cytotoxicity compared with DPT” value with A549 cell is reported as “stronger cytotoxicity than DPT”. The EC50 with A549 cell (setting [1]) is 72 nM. Regarding `COc1cc(C=CC(=O)Oc2c(OC)cc(C3c4cc5c(cc4CC4COC(=O)C43)OCO5)cc2OC)cc(OC)c1OC` (stereo not shown) [Compound 1c-1, 4′-demethyl-4′-O-(3,4,5-trimethoxyphenylcinnamoyl)-1-deoxypodophyllotoxin], the EC50 in the data set with A549 cell (setting [2]) was found to be 108 nM. For `COc1ccccc1NC(=O)Oc1c(OC)cc(C2c3cc4c(cc3CC3COC(=O)C32)OCO4)cc1OC` (stereo not shown) [Compound 1b-13, 4′-demethyl-4′-O-(2-methoxyphenylcarbamoyl)-1-deoxypodophyllotoxin], in the data set on A549 cell, the “cytotoxicity compared with DPT” value is given as “stronger cytotoxicity than DPT”. Further, the EC50 in the data set on A549 cell (setting [1]) worked out at 66.2 nM. As for `COc1cc(C2c3cc4c(cc3CC3COC(=O)C32)OCO4)cc(OC)c1OC(=O)[C@@H](N)Cc1ccc(O)cc1` (stereo partly shown) [Compound 1a-9, 4′-demethyl-4′-O-tyrosinoyl-1-deoxypodophyllotoxin], the EC50 in the data set on A549 cell (setting [1]) came to 104 nM. For the molecule `COc1cc(C2c3cc4c(cc3CC3COC(=O)C32)OCO4)cc(OC)c1OC(=O)Cc1ccc(N(C)C)cc1` (stereo not shown) [Compound 1c-2, 4′-demethyl-4′-O-(4-dimethylaminophenylacetyl)-1-deoxypodophyllotoxin], the EC50 with A549 cell (setting [2]) was determined as 106 nM.
